The record followed here is patent US20230219898A1, “COMPOUNDS AND METHODS FOR BLOCKING APOPTOSIS AND INDUCING AUTOPHAGY” (President and Fellows of Harvard College, priority 2020, published 2023).

One experiment has as its target T1, His-TRADD-N (Homo sapiens, UniProt Q15628).
T1 construct: expression constructs encoding Flag-TRADD-N(1-179) and HA-TRADD-C(180-312); made in house; host or cells: E. coli BL21 (DE3), pET-28a
Description: Thermal shift assay with His-TRADD-N. The experiment is classed as binding. The protocol: Recombinant WT and mutant His-TRADD-N(aal-179) protein fragment was expressed in BL21 (DE3) E. coli after induction with 0.5 mM IPTG overnight at 16C. ^15N-labeled TRADD-N domain protein was purified from E. co/i grown at 16C in minimal medium. Bacteria were harvested and disrupted by a high-pressure homogenizer and purified by Ni^2+ affinity resin (GE Healthcare). All proteins were further purified by size exclusion chromatograph on a Superdex 75 column (GE Healthcare) in a buffer containing 20 mM imidazole (pH6.6), 200 mM NaCl, 20 mM DTT and 0.05% NaN3. All NMR samples were in the same buffer at concentrations between 0.2-0.4 mM with 90% H2O/10% D2O. […]
To determine stability, purified proteins were made to a final concentration of 1 μg/l. […] The reaction was run from 25C, ramping up in increments of 0.05° C./s to a final temperature of 95C with fluorescence detection throughout the experiment to generate a dataset. Melting temperature of the protein (Tm) was determined by performing non-linear fitting of the dataset to a Boltzmann Sigmoidal curve in GraphPad Prism with the following equation: Y=Bottom+(Top-Bottom)/[1+exp(Tm-X/Slope)], where Y=fluorescence emission in arbitrary units; X=temperature; Bottom=baseline fluorescence at low temperature; Top=maximal fluorescence at top of the dataset; Slope=describes the steepness of the curve, with larger values denoting shallower curves.

The next experiment relates to panel of 97 kinases. Put plainly: KINOMEscan profiling. Conditions: 10 μM. The experiment is classed as binding. The protocol:
FIG. 5d depicts the KINOMEscan profiling of Apt-1 (10 μM) against a panel of 97 kinases. Binding interactions reported as % Ctrl, where lower numbers indicate stronger hits. Negative control=DMSO (100% Ctrl); positive control=control compound (0% Ctrl); 0<% Ctrl <0.1 Very Strong; 0.1≤% Ctrl <1 Strong; 1≤% Ctrl <10 Medium; […] Weak; % Ctrl ≥35 No effects. No significant binding of Apt-1 to this panel of 97 kinases was detected. CellTiter-Glo was used to determine cell survival in (a), (b), and (c).
KINOMEscan profiling was used to assess the interaction of Apt-1 with a panel of 97 kinases as a custom service (DiscoverX/Eurofins, San Diego, Calif. USA). Briefly, DNA-tagged recombinant kinases were produced in E. coli. The assay plates with kinases were incubated at room temperature with shaking for 1 h and the affinity beads were washed with wash buffer (1×PBS, 0.05% Tween 20). The beads were then re-suspended in elution buffer. The kinase concentration in the eluates was measured by qPCR. Apt-1 were screened at […], and the results for primary screen binding interactions are reported as % Ctrl, where lower numbers indicate stronger hits in the matrix.

The target in the next experiment is T2, TRADD-N and TRAF2-C (Homo sapiens, UniProt Q15628).
T2 construct: expression constructs encoding Flag-TRADD-N(1-179) and HA-TRADD-C(180-312); expressed in transfected cells; host or cells: HEK293T
Put plainly: Cell-free FRET assay TRADD-N / TRAF2-C. The experiment is classed as biochemical. Conditions: incubated 1 h. As for the experimental part:
When FRET occurs, the acceptor mVenus-TRADDN-Flag (mV-TRADDN) emission will increase and the donor emission will decrease. Apt-1 was added to the system with indicated concentration and incubated for 1 h, then subjected to FRET assay.
mVenus- and Flag-tagged TRADD-N(mVenus-TRADDN-Flag) and mCerulean- and Flag-tagged TRAF2C (Flag-TRAF2C-mCerulean) was expressed in HEK293T cells for 48 h. Then cells were lysed in NP-40 buffer followed by immunoprecipitation using anti-Flag affinity gel. The proteins were eluted by 5 mg/ml 3×Flag peptide and exchanged into assay buffer (120 mM NaCl, 20 mM NaH2PO4/Na2HPO4, pH 7.4) by dialysis for FRET assay. The proteins were added into Coming black 96-well microtiter plates in triplicates at a final concentration of 1 μM. Apt-1 was incubated with the proteins for 1 h before measurement. Measurements were performed on a fluorescent plate reader (Victor3, 1420 Multilabel counter, Perkin Elmer). The following filter set was used: mCerulean filter set (excitation: 430/15 nm, emission: 460/20 nm); mVenus filter set (excitation: 485/15, emission 535/15); FRET filter set (430/15 nm, emission 450-600 nm).

The next experiment concerns RIPK1 in complex I. Description: RIPK1 activation in complex I of TNFα-stimulated MEFs. The experiment is classed as cell-based, mouse. Conditions: 10 μM. The protocol:
Cells were seeded in 15 cm dishes and treated as indicated with Flag-TNFα ([…]). To terminate treatment, media was removed and plates were washed with 50 mL of ice cold PBS. Plates were frozen at −80C until all time points were acquired. Plates were thawed on ice and cells were lysed in 0.5% NP-40 lysis buffer (50 mM Tris-HCl pH 7.5, 150 mM NaCl and 0.5% NP-40) supplemented with protease inhibitors and N-Ethylmaleimide (2.5 mg/ml). Cell lysates were rotated at 4° C. for 30 min then clarified at 4° C. at 14,000 rpm for 30 min. Proteins were immunoprecipitated from cleared protein lysates with 20 μl of anti-Flag M2 beads (Sigma) with rotation overnight at 4° C. 4×washes in 0.5% NP-40 buffer with N-Ethylmaleimide were performed, and samples eluted by boiling in 50 μl 1×SDS loading buffer. For complex-II purification cells were seeded in 10 cm dishes and treated as indicated using media containing TNFα (10 ng/ml) and zVAD (20 μM). Cells were lysed on ice in 0.5% NP-40 lysis buffer. Cell lysates were rotated at 4C for 30 min then clarified at 4C at 14,000 rpm for 10 min. 20 μl of protein G Sepharose (Sigma), after pre-blocking for 1 h with lysis buffer containing 1% BSA, were incubated with FADD antibody ([…]) and the mixture was incubated in rotation with cleared protein lysates 4 h at 4C. […]

T2 sequence (Q15628 1-179): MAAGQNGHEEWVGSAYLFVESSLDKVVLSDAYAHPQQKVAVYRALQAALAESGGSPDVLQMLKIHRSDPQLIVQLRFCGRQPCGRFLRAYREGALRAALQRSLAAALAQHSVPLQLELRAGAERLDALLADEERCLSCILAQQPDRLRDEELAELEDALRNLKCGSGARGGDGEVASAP
T1 sequence (Q15628 1-179): as above

`CN1CCN=C1SC(C(=O)NC1CCCCCC1)c1ccccc1` (stereo not shown) [Compound 30]: at His-TRADD-N, the “increase of Tm of His-TRADD-N” value was 3.7 °C. In the experiment on panel of 97 kinases, the “off-target effects on 97 kinase targets” value is recorded as “no significant off-target effects”. Also, on TRADD-N and TRAF2-C, the “binding of TRADD-N to TRAF2-C (FRET)” value is on record as “dose-dependently reduced”.
As for `O=C(CSC1=NCCN1)NC1CCCCCC1` [ICCB-19], the “activation of RIPK1 in complex I induced by TNFα” value in the experiment on RIPK1 in complex I is “reduced the rapid activation of RIPK1”.
